Values of other authors in patent publication US20090028935A1, “CARVEDILOL FORMS, COMPOSITIONS, AND METHODS OF PREPARATION THEREOF” (priority 2006, published 2009).
“Also recorded” adds a separate entry of the source. Like-named read-outs stand apart in the source and are kept apart here.

Details: background statement

Compound: COc1ccccc1OCCNCC(O)COc1cccc2[nH]c3ccccc3c12 (racemic) [Carvedilol, (±)-1-(carbazol-4-yloxy)-3-[[2-(o-methoxyphenoxy)ethyl]amino]-2-propanol]
- aqueous solubility: low solubility in aqueous media, especially in media of increasingly basic pH; also recorded: limited aqueous solubility, especially in basic aqueous media
- aqueous solubility (listed as carvedilol): pH dependent solubility with significantly lower solubility in the lower gastrointestinal tract
